Experimental data reported in patent US6350917B1, “α-crystal of cyclopentenone” (Takara Shuzo Co., Ltd., priority 1997, dated 2002).

Assay: Thermostability: quantitative determination of the cyclopentenone (UV absorbance near 215 nm) initially and after standing at 40° C. for six days
Assay type: physicochemical
Conditions: for Amount of the Cyclopentenone (%) After Standing at 40° C. for six days / Amount of the Cyclopentenone (%) At Initial Stage: ratio of the cyclopentenone in the sample; for Amount of the Cyclopentenone (%) At Initial Stage: the rest being water and impurities
Experimental: In order to compare the thermostability of the freeze-dried cyclopentenone obtained in Referential Example 1 and that of the α-type crystals obtained in Example 1, quantitative determination was conducted for the cyclopentenone on the initial stage and after allowing to stand at 40° C. for six days by means of the following quantitative determination method.
Quantitative Determination Method: A sample (0.1 g) of the cyclopentenone is dissolved in 100 ml of water and 2 ml of the resulting solution are diluted to an extent of 50-fold. Absorbance (A) of this solution at the wave length of maximum absorption near the wave length of 215 nm is measured. Amount of the cyclopentenone (mg/ml) is calculated by the following formula.
Amount of the Cyclopentenone (mg/ml)=(A÷773.4)×50000

Row | Amount of the Cyclopentenone (%) After Standing at 40° C. for six days [%] | Amount of the Cyclopentenone (%) At Initial Stage [%] | SMILES | Thermostability compared with the freeze-dried product (40° C. for six days, in words)
1 | 28.2 | 59.4 | O=C1C=C[C@@H](O)[C@@H]1O (relative stereo) [Freeze-Dried Product, trans-4,5-dihydroxy-2-cyclopenten-1-one, reference compound] | 
2 | 95.2 | 96.4 | O=C1C=C[C@@H](O)[C@@H]1O (relative stereo) [α-Type Crystals, trans-4,5-dihydroxy-2-cyclopenten-1-one] | significantly improved thermostability as compared with the freeze-dried product
